Several values for one entry are separate records, joined by “and”; a condition that tells them apart may be missing. Equal entries are not always repeated. Toxic doses and inconclusive results are not listed.
Tested on: B6C3F1 mice, B16 melanoma ip, median survival T/C
Experiment: NCI In Vivo Anticancer Drug Screen. Data for tumor model B16 Melanoma (intraperitoneal) in B6C3F1 mice
Conditions: endpoint: median survival time, schedule: Q01DX009 (ip), higher = longer survival
Summary of the method: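 Antitumor effect was judged in mice with transplanted tumors by dividing the treated group's survival measure by that of vehicle controls.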

[1] = dose: 50.0 mg/kg/injection, vehicle: saline with Tween-80
[2] = dose: 100.0 mg/kg/injection, vehicle: saline with Tween-80
[3] = dose: 200.0 mg/kg/injection, vehicle: saline with Tween-80
[4] = dose: 400.0 mg/kg/injection, vehicle: saline with Tween-80
[5] = dose: 25.0 mg/kg/injection, vehicle: saline with Tween-80
[6] = dose: 15.0 mg/kg/injection, vehicle: saline
[7] = dose: 50.0 mg/kg/injection, vehicle: saline
[8] = dose: 100.0 mg/kg/injection, vehicle: saline
[9] = dose: 200.0 mg/kg/injection, vehicle: saline
[10] = dose: 12.5 mg/kg/injection, vehicle: water
[11] = dose: 25.0 mg/kg/injection, vehicle: water
[12] = dose: 50.0 mg/kg/injection, vehicle: water
[13] = dose: 100.0 mg/kg/injection, vehicle: water
[14] = dose: 12.5 mg/kg/injection, vehicle: saline with Tween-80
[15] = dose: 6.25 mg/kg/injection, vehicle: Klucel (hydroxypropylcellulose) (HPC)
[16] = dose: 12.5 mg/kg/injection, vehicle: Klucel (hydroxypropylcellulose) (HPC)
[17] = dose: 25.0 mg/kg/injection, vehicle: Klucel (hydroxypropylcellulose) (HPC)
[18] = dose: 50.0 mg/kg/injection, vehicle: Klucel (hydroxypropylcellulose) (HPC)

Oc1ccc2ccccc2c1N=Nc1ccc(Cl)cc1
T/C [1]: 115 % of control and 118 % of control
T/C [2]: 114 % of control and 103 % of control
T/C [3]: 92 % of control and 101 % of control
T/C [4]: 109 % of control

COc1c(O)cc2c(c1OC)-c1ccc(SC)c(=O)cc1C(NC(C)=O)CC2 (centres undefined)
T/C (dose: 1.25 mg/kg/injection, vehicle: Klucel (hydroxypropylcellulose) (HPC)): 160 % of control
T/C (dose: 1.8 mg/kg/injection, vehicle: Klucel (hydroxypropylcellulose) (HPC)): 180 % of control and 182 % of control and 186 % of control
T/C (dose: 2.5 mg/kg/injection, vehicle: Klucel (hydroxypropylcellulose) (HPC)): 156 % of control and 167 % of control
T/C (dose: 3.0 mg/kg/injection, vehicle: Klucel (hydroxypropylcellulose) (HPC)): 178 % of control and 184 % of control and 198 % of control
T/C (dose: 10.0 mg/kg/injection, vehicle: Klucel (hydroxypropylcellulose) (HPC)): 180 % of control

CC1(C)CC2(C)OC2C2(C1)N=NC(=Nc1ccccc1)O2 (centres undefined)
T/C [5]: 96 % of control
T/C [1]: 100 % of control
T/C [2]: 89 % of control

CC(C)(O)/C=C/C(=O)[C@](C)(O)[C@H]1[C@H](O)C[C@@]2(C)[C@@H]3CC=C4[C@@H](C=C(O)C(=O)C4(C)C)[C@]3(C)C(=O)C[C@]12C
T/C (dose: 0.25 mg/kg/injection, vehicle: water): 99 % of control
T/C (dose: 0.5 mg/kg/injection, vehicle: water): 89 % of control
T/C (dose: 1.0 mg/kg/injection, vehicle: water): 89 % of control

CN(C)C1C(=O)C(C(=O)NP(=O)(NCCCO)N(CCCl)CCCl)=C(O)C2(O)C(=O)C3=C(O)c4c(O)cccc4C(C)(O)C3CC12 (centres undefined)
T/C (dose: 12.0 mg/kg/injection, vehicle: saline with Tween-80): 105 % of control
T/C [5]: 103 % of control and 107 % of control
T/C [1]: 118 % of control and 102 % of control
T/C [2]: 121 % of control
T/C [3]: 195 % of control and 219 % of control

COc1cc2c(cc1O)C1CC(CC3CCCCN31)OC(=O)/C=C\c1ccc(O)c-2c1 (centres undefined)
T/C [6]: 101 % of control
T/C (dose: 30.0 mg/kg/injection, vehicle: saline): 104 % of control
T/C (dose: 60.0 mg/kg/injection, vehicle: saline): 114 % of control
T/C (dose: 120.0 mg/kg/injection, vehicle: saline): 102 % of control

CN(C)CC1CCCC(CN(C)C)C1=O (centres undefined)
T/C [7]: 103 % of control
T/C [8]: 97 % of control
T/C [9]: 100 % of control

CCOC(=O)c1cn(C)c2c1C(O)=C(C(=O)OC)CC(=O)N2
T/C [5]: 92 % of control
T/C [1]: 96 % of control
T/C [2]: 96 % of control
T/C [3]: 96 % of control
T/C [4]: 92 % of control

CC(=O)NC(C=O)OCC=O (centres undefined)
T/C (dose: 6.25 mg/kg/injection, vehicle: water): 112 % of control
T/C [10]: 111 % of control and 106 % of control
T/C [11]: 109 % of control and 105 % of control
T/C [12]: 103 % of control and 106 % of control
T/C [13]: 111 % of control and 117 % of control
T/C (dose: 200.0 mg/kg/injection, vehicle: water): 112 % of control

COC1=CC(=O)c2c(O)cc(OC)cc2C1=O
T/C (dose: 1.25 mg/kg/injection, vehicle: saline with Tween-80): 105 % of control
T/C (dose: 2.5 mg/kg/injection, vehicle: saline with Tween-80): 105 % of control
T/C (dose: 5.0 mg/kg/injection, vehicle: saline with Tween-80): 121 % of control
T/C (dose: 10.0 mg/kg/injection, vehicle: saline with Tween-80): 109 % of control

CCC1=C[C@H]2CN(CCc3c([nH]c4ccccc34)[C@@](C(=O)OC)(c3cc4c(cc3OC)N(C)[C@H]3[C@@](O)(C(=O)NC)[C@H](OC(C)=O)[C@]5(CC)C=CCN6CC[C@]43[C@@H]65)C2)C1
T/C (dose: 0.03 mg/kg/injection, vehicle: saline): 117 % of control
T/C (dose: 0.06 mg/kg/injection, vehicle: saline): 118 % of control
T/C (dose: 0.12 mg/kg/injection, vehicle: saline): 170 % of control
T/C (dose: 0.25 mg/kg/injection, vehicle: saline): 182 % of control
T/C (dose: 0.5 mg/kg/injection, vehicle: saline): 238 % of control

CCOc1ncc([N+](=O)[O-])c(OCC)n1
T/C [1]: 89 % of control and 106 % of control
T/C [2]: 103 % of control
T/C [3]: 91 % of control and 96 % of control

CS(=O)(=O)CS(=O)(=O)OCCF
T/C (dose: 3.12 mg/kg/injection, vehicle: saline): 107 % of control
T/C (dose: 5.4 mg/kg/injection, vehicle: saline): 100 % of control
T/C (dose: 6.25 mg/kg/injection, vehicle: saline): 116 % of control
T/C (dose: 9.0 mg/kg/injection, vehicle: saline): 110 % of control and 100 % of control
T/C [6]: 113 % of control and 119 % of control
T/C (dose: 41.67 mg/kg/injection, vehicle: saline): 121 % of control and 216 % of control

CN1C(=O)C(=Cc2ccc(O)cc2)C(=O)N(C)C1=O
T/C [14]: 97 % of control
T/C [5]: 99 % of control
T/C [1]: 101 % of control
T/C [2]: 104 % of control
T/C [3]: 94 % of control

O=C1c2cccc3cc([N+](=O)[O-])cc(c23)C(=O)N1CCN1CCCC1
T/C (dose: 6.25 mg/kg/injection, vehicle: saline with Tween-80): 122 % of control
T/C [5]: 108 % of control

Cc1ccc2c(ccc(CC(=S)[S-])[n+]2C)c1
T/C [15]: 92 % of control and 93 % of control
T/C [16]: 92 % of control and 99 % of control
T/C [17]: 87 % of control and 88 % of control
T/C [18]: 89 % of control

ClCCCN1CCN(CCCl)CC1
T/C (dose: 1.25 mg/kg/injection, vehicle: saline): 98 % of control
T/C (dose: 2.5 mg/kg/injection, vehicle: saline): 124 % of control and 99 % of control

COc1ccc(CC(N)c2ccccc2)cc1 (centres undefined)
T/C [7]: 99 % of control
T/C [8]: 96 % of control

c1cc2c(c(CC3CO3)c1CC1CO1)OCCOCCOCCOCCO2 (centres undefined)
T/C (dose: 6.25 mg/kg/injection, vehicle: saline + alcohol): 102 % of control
T/C (dose: 12.5 mg/kg/injection, vehicle: saline + alcohol): 112 % of control
T/C (dose: 25.0 mg/kg/injection, vehicle: saline + Tween-80 + alcohol): 113 % of control
T/C (dose: 25.0 mg/kg/injection, vehicle: saline + alcohol): 112 % of control
T/C (dose: 50.0 mg/kg/injection, vehicle: saline + Tween-80 + alcohol): 113 % of control
T/C (dose: 50.0 mg/kg/injection, vehicle: saline + alcohol): 119 % of control and 108 % of control
T/C (dose: 100.0 mg/kg/injection, vehicle: saline + Tween-80 + alcohol): 122 % of control
T/C (dose: 100.0 mg/kg/injection, vehicle: saline + alcohol): 113 % of control and 123 % of control
T/C (dose: 200.0 mg/kg/injection, vehicle: saline + alcohol): 109 % of control

COC1=C(NC(C)=O)C(=O)c2nc(-c3nc(C(=O)O)c(C)c(-c4ccc(OC)c(OC)c4O)c3N)ccc2C1=O
T/C [15]: 103 % of control
T/C [16]: 95 % of control
T/C [17]: 86 % of control
T/C [18]: 97 % of control

ClCC[N+]12CC[N+](CCCl)(CC1)C2
T/C [10]: 98 % of control
T/C [11]: 114 % of control
T/C [12]: 104 % of control
T/C [13]: 108 % of control

CC(Oc1ccccc1-c1ccccc1)C(=O)N(C)C (centres undefined)
T/C [14]: 95 % of control
T/C [5]: 100 % of control
T/C [1]: 95 % of control
T/C [2]: 98 % of control
T/C [3]: 106 % of control
T/C [4]: 100 % of control

C[N+](C)(C)c1ncnc2nc[nH]c12
T/C (dose: 12.5 mg/kg/injection, vehicle: saline): 98 % of control
T/C (dose: 25.0 mg/kg/injection, vehicle: saline): 100 % of control
T/C [7]: 114 % of control and 88 % of control
T/C [8]: 93 % of control and 103 % of control
T/C [9]: 93 % of control
